This note sets out measurements from ChEMBL document CHEMBL3758087, “7TM X-ray structures for class C GPCRs as new drug-discovery tools. 1. mGluR5” (Bioorg Med Chem Lett, 2016).

Assay [1] has as its target T1, Metabotropic glutamate receptor 5 (Rattus norvegicus, UniProt P31424). Description: Antagonist activity at rat mGluR5 expressed in HEK293 cells assessed as inhibition of glutamate-induced calcium mobilization by Fluo-4 dye-based fluorescence assay. The class given is functional, cell-based. On the technique in general: Calcium flux is commonly read through the fluorescence of an indicator in the cells.

Assay [2] has as its target T1, Metabotropic glutamate receptor 5. In words: Displacement of [3H]methoxy-PEPgamma from mGluR5 in rat cerebral cortex membranes after 60 mins by scintillation counting analysis. The class given is cell membranes, Membrane.
Assay [3] addresses T2, Metabotropic glutamate receptor 5 (Homo sapiens, UniProt P41594). Description: Antagonist activity at human mGluR5 expressed in CHO cells assessed as inhibition of glutamate-induced effect by aequorin bioluminescence assay. The class given is cell-based.
In assay [4] the target is T2, Metabotropic glutamate receptor 5. Description: Antagonist activity at mGluR5 (unknown origin).
Assay [5] shares this target. In words: Antagonist activity at human mGluR5d by fluo-3-based FLIPR assay.

T2 sequence (P41594 whole entry): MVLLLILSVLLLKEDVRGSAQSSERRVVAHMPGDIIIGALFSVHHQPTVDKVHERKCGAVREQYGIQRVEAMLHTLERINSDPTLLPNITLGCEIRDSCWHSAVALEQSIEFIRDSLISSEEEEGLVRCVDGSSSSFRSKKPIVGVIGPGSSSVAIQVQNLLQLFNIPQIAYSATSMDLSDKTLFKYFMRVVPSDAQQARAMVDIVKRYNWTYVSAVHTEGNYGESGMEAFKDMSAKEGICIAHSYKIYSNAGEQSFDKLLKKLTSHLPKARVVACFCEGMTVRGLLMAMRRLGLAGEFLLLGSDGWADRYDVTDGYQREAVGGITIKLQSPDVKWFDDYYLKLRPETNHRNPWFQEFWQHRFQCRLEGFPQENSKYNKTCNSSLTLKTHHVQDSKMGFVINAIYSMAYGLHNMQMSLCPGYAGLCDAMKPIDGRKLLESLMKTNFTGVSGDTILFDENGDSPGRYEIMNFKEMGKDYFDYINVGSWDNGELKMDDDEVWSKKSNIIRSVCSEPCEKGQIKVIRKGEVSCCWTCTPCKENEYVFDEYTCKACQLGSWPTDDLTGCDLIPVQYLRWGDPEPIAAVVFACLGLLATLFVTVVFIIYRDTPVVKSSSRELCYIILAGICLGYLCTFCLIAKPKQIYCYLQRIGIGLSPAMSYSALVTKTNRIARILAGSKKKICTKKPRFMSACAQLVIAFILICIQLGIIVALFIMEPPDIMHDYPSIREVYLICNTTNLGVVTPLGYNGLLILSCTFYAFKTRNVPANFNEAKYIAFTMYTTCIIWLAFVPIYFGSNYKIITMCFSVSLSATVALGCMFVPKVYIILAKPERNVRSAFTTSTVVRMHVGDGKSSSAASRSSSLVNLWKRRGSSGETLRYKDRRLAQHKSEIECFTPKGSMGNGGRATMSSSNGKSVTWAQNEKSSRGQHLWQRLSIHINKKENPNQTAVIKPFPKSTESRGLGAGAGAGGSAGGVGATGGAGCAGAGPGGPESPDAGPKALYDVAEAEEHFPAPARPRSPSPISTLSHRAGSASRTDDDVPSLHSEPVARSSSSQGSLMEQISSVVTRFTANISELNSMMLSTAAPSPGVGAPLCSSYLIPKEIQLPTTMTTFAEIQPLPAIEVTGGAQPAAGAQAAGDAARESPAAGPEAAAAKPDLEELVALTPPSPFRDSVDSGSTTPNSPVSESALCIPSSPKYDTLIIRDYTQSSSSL
T1 sequence (P31424 whole entry): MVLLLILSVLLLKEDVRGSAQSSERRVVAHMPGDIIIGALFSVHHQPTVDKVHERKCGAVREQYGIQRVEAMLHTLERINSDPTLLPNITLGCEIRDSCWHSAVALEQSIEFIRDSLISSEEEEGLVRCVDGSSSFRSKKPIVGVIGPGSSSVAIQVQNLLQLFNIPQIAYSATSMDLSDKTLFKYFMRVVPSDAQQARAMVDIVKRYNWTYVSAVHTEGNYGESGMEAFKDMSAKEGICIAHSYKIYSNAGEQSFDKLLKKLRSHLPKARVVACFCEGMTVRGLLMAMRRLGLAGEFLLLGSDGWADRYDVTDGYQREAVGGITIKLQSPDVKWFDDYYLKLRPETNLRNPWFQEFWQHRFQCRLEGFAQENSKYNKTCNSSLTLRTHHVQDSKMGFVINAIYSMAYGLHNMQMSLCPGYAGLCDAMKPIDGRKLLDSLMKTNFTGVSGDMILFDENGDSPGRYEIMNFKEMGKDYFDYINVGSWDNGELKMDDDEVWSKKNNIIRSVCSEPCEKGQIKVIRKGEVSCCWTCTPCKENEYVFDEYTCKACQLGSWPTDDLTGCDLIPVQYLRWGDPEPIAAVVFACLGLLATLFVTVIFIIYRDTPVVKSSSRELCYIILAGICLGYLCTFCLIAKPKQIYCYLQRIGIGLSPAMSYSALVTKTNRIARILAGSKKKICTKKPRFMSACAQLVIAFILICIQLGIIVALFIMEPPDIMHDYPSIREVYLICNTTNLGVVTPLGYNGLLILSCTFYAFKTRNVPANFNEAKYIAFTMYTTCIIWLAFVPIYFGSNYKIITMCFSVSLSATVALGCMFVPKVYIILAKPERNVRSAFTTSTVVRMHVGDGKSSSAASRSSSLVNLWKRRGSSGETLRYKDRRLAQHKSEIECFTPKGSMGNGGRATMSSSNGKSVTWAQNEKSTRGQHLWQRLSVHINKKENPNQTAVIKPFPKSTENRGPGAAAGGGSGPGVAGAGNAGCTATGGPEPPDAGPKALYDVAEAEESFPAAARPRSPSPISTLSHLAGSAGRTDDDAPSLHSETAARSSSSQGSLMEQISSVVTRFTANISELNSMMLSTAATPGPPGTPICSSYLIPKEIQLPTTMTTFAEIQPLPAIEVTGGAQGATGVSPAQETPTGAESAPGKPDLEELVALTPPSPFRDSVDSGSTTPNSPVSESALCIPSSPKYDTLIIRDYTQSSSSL

In the case of `N#Cc1cnc(Nc2nc3ccccc3o2)nc1-c1ccc(F)cc1`, the IC50 in assay [1] came to 91 nM.

`Cc1cccc(C(=O)NC23CC4CC(C2)CC(NC(=O)c2cccc(C)n2)(C4)C3)n1`: the inhibition constant Ki in assay [2] was found to be 6.7 nM.

Consider `O=C(Nc1ccnc(Cl)c1)c1nnn2c1CSc1c-2ccc(F)c1Cl`, for which, in assay [3], the IC50 was 0.79 nM.

In assay [4], `N#Cc1nccnc1N1CCN2[C@@H](CC[C@@H]2c2nnn(-c3cccc(Cl)c3)n2)C1` (racemic) showed a 50% inhibitory concentration (IC50) of 10 nM.

In assay [5], `N#Cc1cccc(C#C[C@H]2CCC[C@H]3CN(c4ncccc4C#N)CCN32)c1` (racemic) registered a half-maximal inhibitory concentration (IC50) of 20 nM.

As usually defined, the IC50 is the midpoint of a concentration-inhibition curve. The Ki is a dissociation constant, usually derived from enzyme kinetics or from competition with a known ligand.
